From US7053107B2, “Indazole compounds and pharmaceutical compositions for inhibiting protein kinases, and methods for their use” (Agouron Pharmaceuticals, Inc., priority 2002, dated 2006) come the findings set out here.

The target of data set [1] is T1, unphosphorylated VEGF-R2Δ50 (Homo sapiens, UniProt P35968, DEL940-989/E990V).
T1 construct: VEGF-R2Δ50 contains residues 806–939 and 990–1171; made in house; host or cells: baculovirus/insect cell system
Put plainly: VEGF-R2 coupled spectrophotometric assay, unphosphorylated construct (FLVK). Type of data set: biochemical. The following applies: % inhibition at 50 nM compound; read-out: FLVK Ki % inh @ 50 nM. In short, it runs like this:
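Human VEGF-R2Δ50 kinase (residues 806–939/990–1171, baculovirus-expressed; autophosphorylated form pre-treated with 3 mM ATP, 4° C, 2 h), 5–40 nM, with poly(E4Y1) in 200 mM HEPES pH 7.5; ADP coupled via PK/LDH to NADH oxidation at 340 nm. Phosphorylated: 1 mM ATP, 5.1 mM poly(E4Y1), 25 mM MgCl2; unphosphorylated: 3 mM ATP, 20 mM poly(E4Y1), 60 mM MgCl2, 2 mM MnCl2. Ki from activity at varying compound levels.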

The target in a further data set is T2, FGF-R1 (Homo sapiens, UniProt P11362, C488A/C584S/L457V).
T2 construct: starting from the endogenous methionine residue 456 to glutamate 766; made in house; host or cells: baculovirus vector expression system
Put plainly: Fibroblast Growth Factor (FGF-R) spectrophotometric assay. Type of data set: biochemical. The settings on record: for inhibition at 1 µM: 1 μM compound, read-out: FGF-P % inhibit @1 μM. The method, boiled down: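 Baculovirus-expressed human FGF-R1 kinase domain (Met456–Glu766; L457V/C488A/C584S), 50 nM, with 2 mM ATP and 15 mM poly(E4Y1) in HEPES pH 7.5. ADP formation coupled via PK/LDH to NADH oxidation, read as A340 decrease. Ki from activity across varying compound concentrations.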

Data set [2] can be described thus: Human Liver Microsome (HLM) Assay. Type of data set: in vitro ADME. The procedure:
Compound metabolism in human liver microsomes was measured by LC-MS analytical assay procedures as follows. First, human liver microsomes (HLM) were thawed and diluted to 5 mg/mL with cold 100 mM potassium phosphate (KPO4) buffer. Appropriate amounts of KPO4 buffer, NADPH-regenerating solution (containing B-NADP, glucose-6-phosphate, glucose-6-phosphate dehydrogenase, and MgCl2), and HLM were preincubated in 13×100 mm glass tubes at 37 C. for 10 min. (3 tubes per test compound—triplicate). Test compound (5 µM final) was added to each tube to initiate reaction and was mixed by gentle vortexing, followed by incubation at 37° C. […] Samples were centrifuged at 4000 rpm for 20 min. to precipitate proteins and salt (Beckman Allegra 6KR, S/N ALK98DO6, #634). Supernatant was transferred to new 12×75 mm glass tubes and evaporated by Speed-Vac centrifugal vacuum evaporator. Samples were reconstituted in 200 μL 0.1% formic acid/acetonitrile (90/10) and vortexed vigorously to dissolve. The samples were then transferred to separate polypropylene microcentrifuge tubes and centrifuged at 14000×g for 10 min. (Fisher Micro 14, S/N M0017580). […]
The combined compound samples were injected into the LC-MS system, composed of a Hewlett-Packard HP 1100 diode array HPLC and a Micromass Quattro II triple quadruple mass spectrometer operating in positive electrospray SIR mode (programmed to scan specifically for the molecular ion of each test compound. Each test compound peak was integrated at each timepoint. […]
(In general: Liver microsomes are a subcellular fraction often used to study metabolism.)

The next data set addresses T3, PDGFRβ (Homo sapiens, UniProt P09619).
T3 construct: expressed in transfected cells; host or cells: porcine aorta endothelial (PAE) cells
Put plainly: PAE-PDGFRβ Phosphorylation in PAE-PDGFRB Cells Assay. It counts as cell-based. The settings on record: PAE cells overexpressing human PDGFRβ; read-out: PAE PDGFR autophos IC50. In short, it runs like this:
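PAE cells overexpressing human PDGFRβ, serum-starved 16 h (0.1% FBS), compound 1 h at 37° C (0.5% DMSO), then 1 μg/mL PDGF-BB with 2 mM Na3VO4 for 8 min. Receptor captured by anti-PDGFRβ, phosphotyrosine detected by HRP-PY20/TMB at 450 nm; IC50 by four-parameter fit.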

The term IC50 denotes the concentration that inhibits the measured activity by half. What is called Ki is the equilibrium dissociation constant of an inhibitor or competing ligand from its target.

T2 sequence (P11362 456-766 L457V/C488A/C584S): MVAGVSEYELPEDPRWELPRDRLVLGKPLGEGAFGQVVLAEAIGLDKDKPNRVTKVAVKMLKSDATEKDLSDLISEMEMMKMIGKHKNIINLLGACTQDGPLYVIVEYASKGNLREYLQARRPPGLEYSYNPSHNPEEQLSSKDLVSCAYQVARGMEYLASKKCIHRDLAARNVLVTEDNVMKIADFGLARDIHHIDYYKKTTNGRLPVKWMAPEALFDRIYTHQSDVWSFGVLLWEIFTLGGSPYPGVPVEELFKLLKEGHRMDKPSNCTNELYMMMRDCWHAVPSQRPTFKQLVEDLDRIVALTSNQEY
T3 sequence (P09619 33-1106): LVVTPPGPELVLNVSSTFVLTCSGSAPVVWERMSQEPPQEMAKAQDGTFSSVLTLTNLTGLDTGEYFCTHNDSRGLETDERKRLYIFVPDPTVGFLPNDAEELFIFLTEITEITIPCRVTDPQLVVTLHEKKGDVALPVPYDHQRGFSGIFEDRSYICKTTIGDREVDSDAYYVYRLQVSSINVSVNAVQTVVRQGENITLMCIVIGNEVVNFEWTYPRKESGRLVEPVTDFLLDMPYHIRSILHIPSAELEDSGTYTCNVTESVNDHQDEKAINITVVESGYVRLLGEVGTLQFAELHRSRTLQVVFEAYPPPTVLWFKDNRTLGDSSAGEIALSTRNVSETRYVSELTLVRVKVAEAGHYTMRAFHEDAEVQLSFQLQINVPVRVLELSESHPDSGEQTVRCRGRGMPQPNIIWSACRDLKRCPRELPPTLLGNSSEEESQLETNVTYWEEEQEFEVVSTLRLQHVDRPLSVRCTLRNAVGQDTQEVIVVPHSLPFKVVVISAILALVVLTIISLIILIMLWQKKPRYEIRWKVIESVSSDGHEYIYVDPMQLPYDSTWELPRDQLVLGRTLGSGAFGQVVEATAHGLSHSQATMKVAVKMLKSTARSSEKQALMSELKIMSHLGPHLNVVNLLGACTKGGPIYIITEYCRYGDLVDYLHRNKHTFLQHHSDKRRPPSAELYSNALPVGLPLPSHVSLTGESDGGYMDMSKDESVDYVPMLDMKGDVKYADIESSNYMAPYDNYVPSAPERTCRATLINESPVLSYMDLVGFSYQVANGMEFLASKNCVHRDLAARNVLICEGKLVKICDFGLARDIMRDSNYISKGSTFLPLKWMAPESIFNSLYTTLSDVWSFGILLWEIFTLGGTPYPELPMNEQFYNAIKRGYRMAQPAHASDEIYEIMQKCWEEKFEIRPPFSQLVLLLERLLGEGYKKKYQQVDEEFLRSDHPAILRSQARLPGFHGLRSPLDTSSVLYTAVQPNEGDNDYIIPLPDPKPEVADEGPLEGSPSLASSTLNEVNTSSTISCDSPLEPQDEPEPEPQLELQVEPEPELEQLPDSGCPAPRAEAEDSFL
T1 sequence (P35968 with tags, fused parts or gaps DEL940-989/E990V limits assumed): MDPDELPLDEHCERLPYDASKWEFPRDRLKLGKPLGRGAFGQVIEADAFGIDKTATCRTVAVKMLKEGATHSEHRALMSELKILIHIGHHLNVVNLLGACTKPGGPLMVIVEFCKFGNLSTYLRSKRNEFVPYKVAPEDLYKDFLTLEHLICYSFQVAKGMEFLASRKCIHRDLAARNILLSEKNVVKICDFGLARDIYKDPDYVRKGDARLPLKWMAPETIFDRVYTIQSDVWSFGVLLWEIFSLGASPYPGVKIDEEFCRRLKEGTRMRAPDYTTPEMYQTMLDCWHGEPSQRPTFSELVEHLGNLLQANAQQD

In the case of `Cc1ccnc(/C=C/c2n[nH]c3cc(Nc4ccccc4C(=O)NC4CC4)ccc23)c1` [Example 2(h), N-Cyclopropyl-2-{3-[(E)-2-(4-methyl-pyridin-2-yl)-vinyl]-1H-indazol-6-ylamino}-benzamide], the inhibition at 0.05 µM in data set [1] is 84%. The inhibition at 1 µM at FGF-R1 stood at 75%. For the same compound, the “% remaining (HLM)” value in data set [2] (@0.5 h) is 74@0.5 h %. On PDGFRβ, the IC50 is 2.8 nM.
For `COc1ccccc1CNC(=O)c1ccccc1Nc1ccc2c(/C=C/c3ccccn3)n[nH]c2c1` [Example 3(h), N-(2-Methoxy-benzyl)-2-[3-((E)-2-pyridin-2-yl-vinyl)-1H-indazol-6-ylamino]-benzamide], in that order: 96%, 85%, 75@0.5 h % and 0.63 nM.
For `Cc1cc(C)nc(/C=C/c2n[nH]c3cc(Nc4ccccc4C(=O)NCC#CCO)ccc23)c1` [Example 10, 2-{3-[(E)-2-(4,6-Dimethyl-pyridin-2-yl)-vinyl]-1H-indazol-6-ylamino}-N-(4-hydroxy-but-2-ynyl)-benzamide], the inhibition at 0.05 µM in data set [1] stood at 76%. In addition, the inhibition at 1 µM on FGF-R1 worked out at 38%. This compound came in with a Ki on FGF-R1 (second value in the FGF-P cell, Ki) of 197 nM. Besides, the “% remaining (HLM)” value in data set [2] (@0.5 h) is given as 80@0.5 h %. Further, the half-inhibitory concentration (IC50) at PDGFRβ was determined as 21 nM.
Regarding `C=C(C)CNC(=O)c1ccccc1Nc1ccc2c(/C=C/c3ccccn3)n[nH]c2c1` [Example 3(k), N-(2-Methyl-allyl)-2-[3-((E)-2-pyridin-2-yl-vinyl)-1H-indazol-6-ylamino]-benzamide], in data set [1], the inhibition at 0.05 µM came out at 74%. For the same compound, the inhibition at 1 µM at FGF-R1 was 36%. The “% remaining (HLM)” value in data set [2] (@0.5 h) was 75@0.5 h %. In addition, the IC50 at PDGFRβ worked out at 5 nM.
As to `O=C(NC1CCC1)c1ccccc1Nc1ccc2c(/C=C/c3ccccn3)n[nH]c2c1` [Example 3(j), N-Cyclobutyl-2-[3-((E)-2-pyridin-2-yl-vinyl)-1H-indazol-6-ylamino]-benzamide], in data set [1], the inhibition at 0.05 µM was 80%. Further, the inhibition at 1 µM on FGF-R1 stood at 43%. Moreover, in data set [2] (@0.5 h), the “% remaining (HLM)” value is on record as 65@0.5 h %. Moreover, the IC50 on PDGFRβ worked out at 4.7 nM.
For `O=C(NCC#CCO)c1ccccc1Nc1ccc2c(/C=C/c3ccccn3)n[nH]c2c1` [Example 64, N-(4-Hydroxy-but-2-ynyl)-2-[3-(2-pyridin-2-yl-vinyl)-1H-indazol-6-ylamino]-benzamide], in that order: 94%, 39%, 66@0.5 h % and 5.5 nM.
In the case of `O=C(NC1CC1)c1ccccc1Nc1ccc2c(/C=C/c3ccccn3)n[nH]c2c1` [Example 3(d), N-Cyclopropyl-2-[3-((E)-2-pyridin-2-yl-vinyl)-1H-indazol-6-ylamino]-benzamide], the inhibition at 0.05 µM in data set [1] is 89%. For the same compound, the inhibition at 1 µM at FGF-R1 is 80%. Also, in data set [2] (@2 h), the “% remaining (HLM)” value is reported as 68@2 h %. Further, the concentration for half-maximal inhibition (IC50) at PDGFRβ was determined as 3.5 nM.
Take `C#CCNC(=O)c1ccccc1Nc1ccc2c(/C=C/c3cc(C)ccn3)n[nH]c2c1` [Example 32, 2-{3-[(E)-2-(4-Methyl-pyridin-2-yl)-vinyl]-1H-indazol-6-ylamino}-N-prop-2-ynyl-benzamide]: the inhibition at 0.05 µM in data set [1] was determined as 78%. Moreover, at FGF-R1, the inhibition at 1 µM was determined as 70%. In addition, the “% remaining (HLM)” value in data set [2] (@0.5 h) is reported as 97@0.5 h %. Besides, the IC50 on PDGFRβ stood at 0.5 nM.
